We go through six compounds from publication PMC6099921, “Microwave Optimized Synthesis of N-(adamantan-1-yl)-4-[(adamantan-1-yl)-sulfamoyl]benzamide and Its Derivatives for Anti-Dengue Virus Activity” (Molecules : A Journal of Synthetic Chemistry and Natural …, 2018).

Series [1] deals with DENV2. The series is described as follows: Cell-based Flavivirus Immunodetection (CFI) assay, DENV envelope protein production in A549 cells. Also noted: species or system dengue virus serotype 2. To be noted: ± standard deviation, at least three independent experiments. The protocol:
(§1) The antiviral activity of the test compounds (1, 3, 6, and 7) was examined in the Cell-based Flavivirus Immuno-assay (CFI assay). The CFI assay is based on a quantitative immunodetection of the DENV envelope protein production in A549 cells. Infection of the A549 cells by the DENV2 was allowed to occur in the presence of each test compound, after which virus load was measured by quantifying the amount of envelope protein that is produced using enzyme linked immunosorbent assay (ELISA). To ensure that the inhibition of the envelope production was not due to cell death, the cytotoxicity of each test compound was assessed via the cell viability assay.
A549 cells (catalog no. CCL-185; ATCC, Manassas, VA, USA) were maintained in Ham’s F-12 medium with 10% fetal bovine serum (FBS) and 1% penicillin-streptomycin at 37 °C in 5% CO2. The DENV2 used in this study was prepared by inoculating monolayers of C6/36 cells grown in RPMI 1640 medium with 5% FBS and 1% penicillin-streptomycin. After incubation at 28 °C for four to five days, the cell culture supernatant was collected after clarification of cell debris and was stored at −80 °C until used.
A549 cells were trypsinised and diluted to a concentration of 2 × 10^5 cells/mL in culture medium containing 2% FBS. A total of 100 μL of the cell suspension (2 × 10^4 cells) was dispensed into each well of a 96-well tissue culture plate. The cells were grown overnight in culture medium at 37 °C with 5% CO2 and were then infected with the DENV at a multiplicity of infection of 0.3 in the presence of different concentrations of the test compounds for 1 h at 37 °C with 5% CO2. The virus inoculum was removed and then replaced with fresh medium containing the test compounds and the cells were incubated at 37 °C with 5% CO2 for 48 h. The cells were washed once with phosphate-buffered saline (PBS) and fixed with cold methanol for 10 min. After the fixed cells were washed twice with PBS, they were blocked with PBS containing 1% FBS and 0.05% Tween 20 for 1 h at room temperature. A primary antibody (antibody 4G2) solution was then added, and the mixture was incubated for 3 h. The cells were washed three times with PBS, followed by incubation for 1 h with horseradish peroxidase-conjugated anti-mouse immunoglobulin G. After the cells were washed three times with PBS, 3,3′,5,5′-tetramethylbenzidine substrate solution was added to each well, and the reaction was stopped by adding 0.5 M sulfuric acid. The absorbencies of the solutions were measured with a Tecan Safire II plate reader (Tecan Group Ltd., Männedorf, Switzerland) at 450 nm for viral antigen quantification. Dose-response curves were plotted from the mean absorbance versus the log of the concentration of the test compound. The IC50, that is, the concentration of the test compound that inhibited the level of viral envelope protein production by 50%, was calculated by nonlinear regression analysis. All of the experiments were conducted in triplicate.

The subject of series [2] is A549 cells. Put plainly: Celltiter-Glo Luminescent cell viability assay (cytotoxicity). Format: cell-based. Conditions: A549 cells, 48 h, maximum concentration tested 100 µM. The method, then:
as §1
(§2) The cytotoxicities of the test compounds were measured by a Celltiter-Glo Luminescent cell viability assay, according to the manufacturer’s protocol (catalog no. G7570; Promega, Madison, WI, USA). The A549 cell preparation and compound addition were performed, as described above under the “CFI assay”. After 48 h of incubation, the luminescent signals for cells treated with the test compounds were compared to those for cells treated with dimethyl sulfoxide (DMSO) to determine the CC50. […] All of the experiments were conducted in triplicate.
(ATP-based viability assays read luminescence as a measure of living cells.)

Experiment in series [3]: as above
The series is classed as cell-based. To be noted: human. The protocol:
as §1, §2

The test system of series [4] is DENV2 NS2B/NS3 protease. Also noted: method as in ref 6 (Timiri et al., 2015). To be noted: in vitro; ref 6 (Timiri et al., 2015); cited from earlier work.
For series [5], the system named is DENV. Also noted: method as in ref 8 (Koff et al., 1980). To be noted: all four serotypes, ref 8 (Koff et al., 1980); cited from earlier work.
The subject of series [6] is DENV. Details: method as in ref 9 (Lin and Chen, 2016). To be noted: small scale clinical study; ref 9 (Lin and Chen, 2016); cited from earlier work.
The mark [7] stands for this setting: Dengue virus, DENV2, A549, 48 h, CFI assay, A549 cells infected with DENV2, MOI 0.3, 48 h, read-out: DENV2 IC50.
Where [8] appears, read: A549 cells, 48 h, maximum concentration tested 100 µM, read-out: CC50.

Where two headings read alike, the source gives them in different places. Where only a bound is given, the exact number is not on record here.

Consider `NS(=O)(=O)c1ccc(C(=O)NC23CC4CC(CC(C4)C2)C3)cc1` [Compound 7, N-(adamantan-1-yl)-4-sulfamoylbenzamide], for which, in series [1] (setting [7]), the IC50 – broadly, the midpoint of a concentration-inhibition curve – was 42.8 ± 8.6 µM. Also, the 50% cytotoxic concentration (CC50) (in general, the concentration giving 50% cytotoxicity) in series [2] is more than 100 µM. For the same compound, in series [3] (setting [8]), the CC50 at 48 h was less than 100 µM.
For `CCc1ccc(NS(=O)(=O)c2ccc(N3C(=O)c4ccccc4C3=O)cc2)cc1` [SF1], the IC50 in series [4] is 48.2 µM.
`O=C(NC12CC3CC(CC(C3)C1)C2)c1ccccc1` [Compound 6, N-(adamantan-1-yl)benzamide]: the IC50 in series [1] (setting [7]) was more than 100 µM. Further, in series [3] (setting [8]), the CC50 at 48 h is more than 100 µM.
As to `O=C1c2ccccc2C(=O)N1c1ccc(S(=O)(=O)Nc2cccc3ccccc23)cc1` [SF2], the IC50 in series [4] is 122 µM.
As for `O=C(NC12CC3CC(CC(C3)C1)C2)c1ccc(S(=O)(=O)NC23CC4CC(CC(C4)C2)C3)cc1` [Compound 3, N-(adamantan-1-yl)-4-[(adamantan-1-yl)sulfamoyl]benzamide], the IC50 in series [1] (CFI assay, A549 cells infected with DENV2, MOI 0.3, 48 h, read-out: DENV2 IC50) stood at 22.4 ± 7.7 µM; in series [1] (Dengue virus, DENV2, A549, 48 h, read-out: DENV2 IC50, CFI assay, A549 cells infected with DENV2, MOI 0.3, 48 h), 22.2 µM. In series [2], this compound gave a CC50 of more than 100 µM. Besides, the CC50 at 48 h in series [3] (setting [8]) is less than 100 µM.
Take `NC12CC3CC(CC(C3)C1)C2` [Compound 1, amantadine, reference compound]: in series [1] (CFI assay, A549 cells infected with DENV2, MOI 0.3, 48 h), the “DENV2 IC50” value was “did not show significant DENV2 activity”. Further, the IC50 in series [1] (setting [7]) is more than 100 µM. For the same compound, the CC50 at 48 h in series [3] (CC50) was more than 100 µM. Moreover, in series [5], the “anti-DENV activity in vitro” value is reported as “anti-DENV activity on all four serotypes”. In series [6], the “treatment effectiveness in DENV infected patients” value is “effective treatment option”.
